Data reported in patent US7932272B2, “Antifungal agent containing heterocyclic compound” (Eisai R&D Management Co., Ltd., priority 2003, dated 2011).
Converted amounts (≈) assume the structure as drawn.

Tests used:
[1] = test system: C. albicans E81022 strain; experiment: Anti-Candida activity (MIC measurement); type: cell-based; conditions: E81022STRAIN, MIC by visual inspection, C. albicans E81022, 48 hours at 30 to 35° C.
Procedure: (§1) For the C. albicans E81022 strain, a fungal suspension from a standing culture for 48 hours at 30° C. in a Sabouraud dextrose liquid culture medium (SDB) was diluted 10,000-fold with a 1.3-fold concentrated SDB to adjust to a fungal suspension of 1 to 2×10^4 cells/ml. For the A. fumigatus Tsukuba strain, −80° C. stored strain was diluted 1,000-fold with a 1.3-fold concentrated SDB to adjust to a fungal suspension of 2 to 3×10^3 cells/ml.
(§2) Using a U-bottomed 96 well plate, 8 samples/plate (A to H) of sample dilution solutions were prepared. On the 3rd row of each plate was dispensed 240 μl of sterilized and distilled water, and on the 2nd and 4th to 12th rows were dispensed 125 μl of 4% dimethylsulfoxide solution. Weighed sample was dissolved in dimethylsulfoxide to prepare a 2.5 to 20 mg/ml solution, 10 μl of this solution was then added to the 3rd row of the prepared plate, and 10 steps of two-fold step dilutions (125 μl of solution+125 μl of 4% dimethylsulfoxide) were performed on the plate.
(§3) The fungal suspension preprared in (1) was used in the amount of 75 μl/well to inoculate a V-bottomed or flat-bottomed 96 well plate containing 25 μl/well of test compound dilution solution prepared in (2), and a standing culture was carried out aerobically for 48 hours at 30 to 35° C.

[2] = test system: A. fumigatus Tsukuba strain; experiment: Anti-Aspergillus activity (MIC measurement); type: cell-based; conditions: MIC by visual inspection, 48 hours at 30 to 35° C.
Procedure: as §1, §2, §3

SMILES | MIC [1] [µg/mL] | MIC [2] [µg/mL]
O=C(NCc1cccc(-c2ccccc2)c1)c1ccc2ncccc2c1 [Example E-13, Quinoline-6-carboxylic acid (biphenyl-3-ylmethyl)-amide] | 0.78 (≈ 2.3 µM) | 1.56 (≈ 4.61 µM)
Nc1nc(NCc2ccco2)ccc1C(=O)NCc1ccc(Oc2ccccc2)s1 [Example A-82, 2-Amino-6-(furfurylamino)-N-(5-phenoxy-thiophen-2-ylmethyl)-nicotinamide] | 0.2 (≈ 0.476 µM) | 1.56 (≈ 3.71 µM)
Nc1ncncc1C(=O)NCc1ccc(Oc2ccccc2)s1 [Example B-1, 4-Amino-pyrimidine-5-carboxylic acid (5-phenoxy-thiophen-2-ylmethyl)-amide] | 3.13 (≈ 9.59 µM) | 6.25 (≈ 19.1 µM)
O=C(O)CCNc1ncccc1C(=O)NCc1ccc(Oc2ccccc2)s1 [Example A-131] | 1.56 (≈ 3.92 µM) | 6.25 (≈ 15.7 µM)
Nc1nc(NCc2ccccc2)ccc1C(=O)NCc1ccc(Oc2ccccc2)s1 [Example A-126, 2-Amino-6-benzylamino-N-(5-phenoxy-thiophen-2-ylmethyl)-nicotinamide] | 0.78 (≈ 1.81 µM) | 6.25 (≈ 14.5 µM)
Nc1nc2c(cc1C(=O)NCc1ccc(Oc3ccccc3)s1)CCC2 [Example C-1] | 0.1 (≈ 0.274 µM) | –
Nc1nc(NCCCn2nccn2)ccc1C(=O)NCc1ccc(Oc2ccccc2)s1 [Example A-81, 2-Amino-N-(5-phenoxy-thiophen-2-ylmethyl)-6-(3-[1,2,3]-triazol-2-yl-propylamino)-nicotinamide] | 3.13 (≈ 6.96 µM) | 6.25 (≈ 13.9 µM)
O=C(NCc1cccc(Oc2ccccc2)c1)c1ccc2nsnc2c1 [Example M-1, Benzo[1,2 5]thiadiazole-5-carboxylic acid 3-phenoxybenzylamide] | 1.56 (≈ 4.32 µM) | 1.56 (≈ 4.32 µM)
O=C(NCc1cccc(Oc2ccccc2)c1)c1ccc2nccnc2c1 [Example I-1, Quinoxaline-6-carboxylic acid 3-phenoxybenzylamide] | 0.78 (≈ 2.19 µM) | 1.56 (≈ 4.39 µM)
N#Cc1cccc(Oc2ccc(CNC(=O)c3ccc4ncccc4c3)s2)c1 [Example E-64, Quinoline-6-carboxylic acid (5-(3-cyano-phenoxy)-thiophen-2-ylmethyl)-amide] | 0.2 (≈ 0.519 µM) | 6.25 (≈ 16.2 µM)
COc1ccc(C(=O)NCc2ccc(Oc3ccccc3)s2)c(N)n1 [Example A-116, 2-Amino-6-methoxy-N-(5-phenoxy-thiophen-2-ylmethyl)-nicotinamide] | 0.39 (≈ 1.1 µM) | 3.13 (≈ 8.81 µM)
Cc1ccc(C(=O)NCc2ccc(OCc3ccccc3)cc2)c(N)n1 [Example A-37, 2-Amino-N-(4-benzyloxy-benzyl)-6-methyl-nicotinamide] | 0.39 (≈ 1.12 µM) | 3.13 (≈ 9.01 µM)
O=C(NCc1cccc(Oc2ccccc2)c1)c1ccc2cnccc2c1 [Example G-1, Isoquinoline-6-carboxylic acid 3-phenoxybenzylamide] | 6.25 (≈ 17.6 µM) | –
Nc1nc(NCC(=O)O)ccc1C(=O)NCc1ccc(Oc2ccccc2)s1 [Example A-99, (6-Amino-5-((5-phenoxy-thiophen-2-ylmethyl)-carbamoyl)-pyridin-2-ylamino)-acetic acid] | 3.13 (≈ 7.86 µM) | 6.25 (≈ 15.7 µM)
O=C(NCc1ccn(Cc2ccccc2)c1)c1ccc2ncccc2c1 [Example E-57, Quinoline-6-carboxylic acid (1-benzyl-1H-pyrrol-3-ylmethyl)-amide] | 0.2 (≈ 0.586 µM) | 6.25 (≈ 18.3 µM)
O=C(NCc1ccc(Oc2ccccc2)s1)c1ccc2nccn2c1 [Example Q-7, Imidazo[1,2-a]pyridine-6-carboxylic acid (5-phenoxy-thiophen-2-ylmethyl)-amide] | 0.39 (≈ 1.12 µM) | 6.25 (≈ 17.9 µM)
O=C(NCc1cccc(Oc2ccccc2)c1)c1ccc2ncccc2c1 [Example E-11, Quinoline-6-carboxylic acid 3-phenoxybenzylamide] | 0.39 (≈ 1.1 µM) | 1.56 (≈ 4.4 µM)

SMILES | MIC [1] [µg/mL] | MIC [2] [µg/mL]
Nc1nc(NCc2ccc(OCc3ccccc3)cc2)c2cccnc2n1 [Example Y-1, N*4*-(4-Benzyloxy-benzyl)-pyrido[2,3-d]pyrimidine-2,4-diamine] | 0.78 (≈ 2.18 µM) | 6.25 (≈ 17.5 µM)
CNc1ncccc1C(=O)NCc1ccc(Oc2ccccc2)s1 [Example A-136, 2-Methylamino-N-(5-phenoxy-thiophen-2-ylmethyl)-nicotinamide] | 1.56 (≈ 4.6 µM) | –
Nc1ccc(C(=O)NCc2ccc(Oc3ccc(F)cc3)s2)cn1 [Example A-139, 6-Amino-N-(5-(4fluoro-phenoxy)-thiophen-2-ylmethyl)-nicotinamide] | 1.56 (≈ 4.54 µM) | 1.56 (≈ 4.54 µM)
O=C(NCc1ccc(OCc2ccccc2)cc1F)c1ccc2ncccc2c1 [Example E-53, Quinoline-6-carboxylic acid 4-benzyloxy-2-fluoro-benzalamide] | 1.56 (≈ 4.04 µM) | 3.13 (≈ 8.1 µM)
O=C(NCc1cc(Oc2cccc(F)c2)cs1)c1ccc2ncccc2c1 [Example E-69, Quinoline-6-carboxylic acid (4-(3-fluoro-phenoxy)-thiophen-2-ylmethyl)-amide] | 0.1 (≈ 0.264 µM) | 1.56 (≈ 4.12 µM)
N#C/N=C(\NCc1ccc(OCc2ccccc2)cc1)c1ccc2ncccc2c1 [Example E-45, N-(4-Benzyloxy-benzyl)-N′-cyano-quinoline-6-carboxamidine] | 3.13 (≈ 7.98 µM) | 3.13 (≈ 7.98 µM)
c1ccc(COc2ccc(CNc3ccc4ncccc4c3)cc2)cc1 [Example W-2, (4-Benzyloxy-benzyl)-quinolin-6-yl-amine] | 1.56 (≈ 4.58 µM) | 0.78 (≈ 2.29 µM)
Nc1ncccc1C(=O)NCc1cc(Cl)c(Oc2ccccc2)s1 [Example A-171, 2-Amino-N-(4-chloro-5-phenoxy-thiophen-2-ylmethyl)-nicotinamide] | 0.2 (≈ 0.556 µM) | 1.56 (≈ 4.34 µM)
c1ccc(COc2ccc(NCc3ccc4ncccc4c3)cc2)cc1 [Example W-1, (4-Benzyloxy-phenyl)-quinolin-6-ylmethyl-amine] | 0.39 (≈ 1.15 µM) | 0.78 (≈ 2.29 µM)
O=C(NCc1cccc(Oc2ccccc2)c1)c1ccc2[nH]ccc2c1 [Example V-1, 1H-Indole-5-carboxylic acid 3-phenoxybenzylamide] | – | 6.25 (≈ 18.3 µM)
O=C(NCc1ccc(Nc2ccccc2)cc1)c1ccc2ncccc2c1 [Example E-25, Quinoline-6-carboxylic acid 4-phenylamino-benzylamide] | 1.56 (≈ 4.41 µM) | –
O=C(NCc1cccc(Oc2ccccc2)c1)c1ccc2nnccc2c1 [Example F-1, Cinnoline-6-carboxylic acid 3-phenoxy-benzylamide] | 3.13 (≈ 8.81 µM) | –
CO/N=C(\NCc1ccc(OCc2ccccc2)cc1)c1ccc2ncccc2c1 [Example E-44, N-(4-Benzyloxy-benzyl)-N′-methoxy-quinoline-6-carboxamidine] | 3.13 (≈ 7.87 µM) | –
COCCCc1ccc(C(=O)NCc2ccc(Oc3ccccc3)s2)c(N)n1 [Example A-124, 2-Amino-6-(3-methoxy-propyl)-N-(5-phenoxy-thiophen-2-ylmethyl)-nicotinamide] | 1.56 (≈ 3.92 µM) | –
Cc1sc(CNC(=O)c2cccnc2N)cc1Oc1ccccc1 [Example A-170, 2-Amino-N-(5-methyl-4-phenoxy-thiophen-2-ylmethyl)-nicotinamide] | 0.78 (≈ 2.3 µM) | –
Nc1ccc(NCCNc2ccc(C(=O)NCc3ccc(Oc4ccccc4)s3)c(N)n2)cc1 [Example A-92, 2-Amino(2-(4-amino-phenylamine)-ethylamino)-N-(5-phenoxy-thiophen-2-ylmethyl)-nicotinamide] | 3.13 (≈ 6.6 µM) | –
O=C(NCc1cccc(OCC2CC2)c1)c1ccc2ncccc2c1 [Example E-43, Quinoline-6-carboxylic acid 3-cyclopropylmethoxy-benzylamide] | 0.39 (≈ 1.17 µM) | –
